According to ChEMBL document CHEMBL1155385, “The identification of a selective dopamine D2 partial agonist, D3 antagonist displaying high levels of brain exposure” (Bioorg Med Chem Lett, 2010):
Values after ≈ are worked out from the molar mass of the structure shown.

How the values were obtained:
D(3) dopamine receptor = D(3) dopamine receptor (Homo sapiens, UniProt P35462); assay: Antagonist activity at human dopamine D3 receptor expressed in CHO cells assessed as inhibition of quinperol-induced [35S]GTPgamma binding by scintillation proximity affinity assay; type: functional, cell-based
Sequence of D(3) dopamine receptor (P35462 whole entry): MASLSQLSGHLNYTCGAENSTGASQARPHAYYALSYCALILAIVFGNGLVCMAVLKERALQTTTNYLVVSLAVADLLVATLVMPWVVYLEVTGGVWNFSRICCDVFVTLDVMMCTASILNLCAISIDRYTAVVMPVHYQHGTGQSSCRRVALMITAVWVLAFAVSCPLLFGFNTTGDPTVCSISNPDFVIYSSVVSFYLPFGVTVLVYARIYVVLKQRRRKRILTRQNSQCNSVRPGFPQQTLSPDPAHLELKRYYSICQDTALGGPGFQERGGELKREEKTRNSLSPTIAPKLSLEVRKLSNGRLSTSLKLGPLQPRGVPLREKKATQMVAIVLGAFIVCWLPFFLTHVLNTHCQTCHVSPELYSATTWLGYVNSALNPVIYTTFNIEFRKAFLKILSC

D(2) dopamine receptor = D(2) dopamine receptor (Homo sapiens, UniProt P14416); assay: Partial agonistic activity at human dopamine D2 receptor expressed in CHO cells by assay [35S]GTPgamma assay with scintillation proximity affinity assay; type: functional, cell-based
Sequence of D(2) dopamine receptor (P14416 whole entry): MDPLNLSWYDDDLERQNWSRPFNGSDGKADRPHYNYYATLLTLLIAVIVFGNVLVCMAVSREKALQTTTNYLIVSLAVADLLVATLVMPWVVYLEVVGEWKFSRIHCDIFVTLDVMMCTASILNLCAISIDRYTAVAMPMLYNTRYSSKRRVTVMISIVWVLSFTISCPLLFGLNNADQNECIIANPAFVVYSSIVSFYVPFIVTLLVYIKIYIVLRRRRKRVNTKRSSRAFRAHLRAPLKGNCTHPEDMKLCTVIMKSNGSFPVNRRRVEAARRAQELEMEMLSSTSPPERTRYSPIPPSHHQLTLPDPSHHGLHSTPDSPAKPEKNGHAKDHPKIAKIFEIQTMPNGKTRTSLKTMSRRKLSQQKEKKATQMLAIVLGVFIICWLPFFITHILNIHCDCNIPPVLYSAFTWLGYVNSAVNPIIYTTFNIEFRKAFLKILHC

[1] = molecular target: Voltage-gated inwardly rectifying potassium channel KCNH2 (Homo sapiens, UniProt Q12809); assay: Displacement of [3H]dofetilide from human ERG by scintillation proximity assay
Sequence of Voltage-gated inwardly rectifying potassium channel KCNH2 (Q12809 whole entry): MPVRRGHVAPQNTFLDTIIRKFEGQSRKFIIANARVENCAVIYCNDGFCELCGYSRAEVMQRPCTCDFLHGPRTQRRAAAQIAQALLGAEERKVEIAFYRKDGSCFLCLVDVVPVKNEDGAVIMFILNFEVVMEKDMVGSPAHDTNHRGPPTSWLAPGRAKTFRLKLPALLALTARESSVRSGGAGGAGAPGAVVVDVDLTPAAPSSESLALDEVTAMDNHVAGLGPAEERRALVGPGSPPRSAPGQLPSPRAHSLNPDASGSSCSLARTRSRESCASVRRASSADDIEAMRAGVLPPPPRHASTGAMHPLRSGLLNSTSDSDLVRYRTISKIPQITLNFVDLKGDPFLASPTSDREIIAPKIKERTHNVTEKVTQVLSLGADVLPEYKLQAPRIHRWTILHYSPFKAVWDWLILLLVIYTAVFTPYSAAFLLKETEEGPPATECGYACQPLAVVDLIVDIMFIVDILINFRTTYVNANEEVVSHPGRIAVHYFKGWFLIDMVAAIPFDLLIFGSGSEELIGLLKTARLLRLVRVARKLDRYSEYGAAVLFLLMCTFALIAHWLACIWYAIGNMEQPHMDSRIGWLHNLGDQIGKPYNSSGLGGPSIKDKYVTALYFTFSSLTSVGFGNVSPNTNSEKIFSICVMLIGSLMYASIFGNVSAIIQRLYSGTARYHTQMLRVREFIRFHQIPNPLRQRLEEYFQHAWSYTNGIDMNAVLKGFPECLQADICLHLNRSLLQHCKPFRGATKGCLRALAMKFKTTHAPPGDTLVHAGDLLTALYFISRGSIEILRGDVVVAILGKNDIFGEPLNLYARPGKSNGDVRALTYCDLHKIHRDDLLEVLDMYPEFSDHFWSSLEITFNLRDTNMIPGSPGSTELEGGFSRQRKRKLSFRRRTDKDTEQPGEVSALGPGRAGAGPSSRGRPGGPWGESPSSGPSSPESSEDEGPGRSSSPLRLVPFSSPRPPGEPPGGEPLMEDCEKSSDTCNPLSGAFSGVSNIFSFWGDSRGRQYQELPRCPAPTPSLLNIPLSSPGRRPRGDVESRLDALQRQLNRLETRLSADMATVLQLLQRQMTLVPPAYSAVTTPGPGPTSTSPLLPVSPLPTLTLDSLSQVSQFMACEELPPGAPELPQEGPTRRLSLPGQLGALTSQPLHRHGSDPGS

[2] = molecular target: 5-hydroxytryptamine receptor 1D (Homo sapiens, UniProt P28221); assay: Binding affinity to 5HT1D receptor
Sequence of 5-hydroxytryptamine receptor 1D (P28221 whole entry): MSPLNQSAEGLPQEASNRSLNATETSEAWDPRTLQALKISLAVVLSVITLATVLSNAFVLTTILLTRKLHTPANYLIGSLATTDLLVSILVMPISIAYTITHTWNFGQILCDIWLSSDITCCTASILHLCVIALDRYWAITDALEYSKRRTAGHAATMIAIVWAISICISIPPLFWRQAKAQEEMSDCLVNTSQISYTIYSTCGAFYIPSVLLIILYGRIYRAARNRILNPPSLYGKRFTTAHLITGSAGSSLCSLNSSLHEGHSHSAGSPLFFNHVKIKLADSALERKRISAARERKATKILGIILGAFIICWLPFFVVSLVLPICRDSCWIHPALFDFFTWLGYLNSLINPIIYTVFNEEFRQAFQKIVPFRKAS

[3] = molecular target: T1, Alpha-1B adrenergic receptor (Homo sapiens, UniProt P35368); assay: Activity at Alpha-1B adrenergic receptor
T1 sequence (P35368 whole entry): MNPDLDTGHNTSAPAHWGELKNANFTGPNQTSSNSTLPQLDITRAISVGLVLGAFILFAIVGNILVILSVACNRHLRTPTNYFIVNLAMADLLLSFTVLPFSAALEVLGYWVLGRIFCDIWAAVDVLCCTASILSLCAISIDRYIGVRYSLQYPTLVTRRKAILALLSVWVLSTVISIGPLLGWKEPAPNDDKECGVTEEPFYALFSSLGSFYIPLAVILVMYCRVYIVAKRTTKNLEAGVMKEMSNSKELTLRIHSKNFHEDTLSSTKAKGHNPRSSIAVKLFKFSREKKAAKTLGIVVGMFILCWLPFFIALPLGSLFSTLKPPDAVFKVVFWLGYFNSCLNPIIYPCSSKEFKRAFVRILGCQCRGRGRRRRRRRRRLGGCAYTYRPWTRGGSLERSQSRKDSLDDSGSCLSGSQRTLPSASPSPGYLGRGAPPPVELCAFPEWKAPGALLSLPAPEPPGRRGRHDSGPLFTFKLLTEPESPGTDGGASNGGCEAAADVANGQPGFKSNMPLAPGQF

[4] = Solubility of the compound; type: physicochemical
Cytochrome P450 2D6 = Cytochrome P450 2D6 (Homo sapiens, UniProt P10635); assay: Inhibition of human recombinant CYP2D6 by spectrofluorimetry; type: ADME
Sequence of Cytochrome P450 2D6 (P10635 whole entry): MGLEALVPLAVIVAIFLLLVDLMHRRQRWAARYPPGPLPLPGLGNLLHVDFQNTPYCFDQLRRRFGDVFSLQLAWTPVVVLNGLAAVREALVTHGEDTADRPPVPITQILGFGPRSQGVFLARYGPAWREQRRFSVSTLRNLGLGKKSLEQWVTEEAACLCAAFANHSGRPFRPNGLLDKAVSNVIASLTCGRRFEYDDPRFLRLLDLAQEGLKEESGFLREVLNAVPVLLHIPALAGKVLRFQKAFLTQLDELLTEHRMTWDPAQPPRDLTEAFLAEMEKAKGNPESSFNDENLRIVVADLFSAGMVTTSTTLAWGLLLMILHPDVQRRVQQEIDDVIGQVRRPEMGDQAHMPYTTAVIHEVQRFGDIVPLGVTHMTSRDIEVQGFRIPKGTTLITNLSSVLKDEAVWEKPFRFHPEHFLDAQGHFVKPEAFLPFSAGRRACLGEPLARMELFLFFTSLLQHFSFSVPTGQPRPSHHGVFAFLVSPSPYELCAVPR

[5] = Intrinsic clearance in human liver microsomes; type: ADME, Microsome
[6] = molecular target: T2, 5-hydroxytryptamine receptor 1A (Homo sapiens, UniProt P08908); assay: Binding affinity to 5HT1A receptor
T2 sequence (P08908 whole entry): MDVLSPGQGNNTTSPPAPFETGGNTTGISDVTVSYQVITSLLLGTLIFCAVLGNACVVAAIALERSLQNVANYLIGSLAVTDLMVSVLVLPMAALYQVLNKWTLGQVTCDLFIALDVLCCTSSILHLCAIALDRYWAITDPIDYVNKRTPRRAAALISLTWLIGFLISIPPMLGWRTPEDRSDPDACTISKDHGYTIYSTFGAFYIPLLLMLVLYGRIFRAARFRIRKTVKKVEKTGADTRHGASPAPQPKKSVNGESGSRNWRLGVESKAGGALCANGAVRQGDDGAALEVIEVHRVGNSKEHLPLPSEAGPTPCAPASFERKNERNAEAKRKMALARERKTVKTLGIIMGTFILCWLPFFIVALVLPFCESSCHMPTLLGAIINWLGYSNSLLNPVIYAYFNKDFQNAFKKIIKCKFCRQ

Histamine H1 receptor = Histamine H1 receptor (Homo sapiens, UniProt P35367); assay: Activity at histamine H1 receptor
Sequence of Histamine H1 receptor (P35367 whole entry): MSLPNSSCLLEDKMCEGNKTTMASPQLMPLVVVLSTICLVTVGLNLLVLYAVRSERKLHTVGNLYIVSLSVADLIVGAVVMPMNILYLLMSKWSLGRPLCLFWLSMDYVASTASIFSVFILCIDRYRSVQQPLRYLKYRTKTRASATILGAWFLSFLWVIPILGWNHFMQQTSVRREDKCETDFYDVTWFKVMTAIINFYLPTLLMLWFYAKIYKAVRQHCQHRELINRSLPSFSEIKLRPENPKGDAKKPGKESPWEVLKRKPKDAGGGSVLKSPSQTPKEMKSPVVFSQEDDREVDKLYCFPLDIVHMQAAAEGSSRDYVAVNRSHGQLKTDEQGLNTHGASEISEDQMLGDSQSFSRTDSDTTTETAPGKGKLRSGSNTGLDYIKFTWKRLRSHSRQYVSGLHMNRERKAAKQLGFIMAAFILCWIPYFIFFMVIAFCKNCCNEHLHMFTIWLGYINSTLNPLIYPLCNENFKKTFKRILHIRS

Liver microsomes = assay: Intrinsic clearance in rat liver microsomes; type: ADME, Microsome
[7] = molecular target: 5-hydroxytryptamine receptor 2A (Homo sapiens, UniProt P28223); assay: Activity at 5HT2A receptor
Sequence of 5-hydroxytryptamine receptor 2A (P28223 whole entry): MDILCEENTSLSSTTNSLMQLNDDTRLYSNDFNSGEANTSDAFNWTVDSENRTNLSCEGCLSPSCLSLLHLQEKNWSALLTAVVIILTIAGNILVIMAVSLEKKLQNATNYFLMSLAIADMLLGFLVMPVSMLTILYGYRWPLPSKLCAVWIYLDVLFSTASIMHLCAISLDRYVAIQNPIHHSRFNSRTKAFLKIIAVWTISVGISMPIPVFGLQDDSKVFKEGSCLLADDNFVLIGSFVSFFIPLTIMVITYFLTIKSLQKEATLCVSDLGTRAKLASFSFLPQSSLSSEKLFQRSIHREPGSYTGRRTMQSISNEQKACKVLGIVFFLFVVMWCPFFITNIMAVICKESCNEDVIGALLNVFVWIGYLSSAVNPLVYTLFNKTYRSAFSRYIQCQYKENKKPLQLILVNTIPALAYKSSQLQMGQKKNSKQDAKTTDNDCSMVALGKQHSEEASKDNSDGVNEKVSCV

[8] = Lipophilicity, log D at pH 7.4; type: physicochemical; conditions: buffer

Row | SMILES | EC50 (D(3) dopamine receptor) | Ki (D(3) dopamine receptor) | EC50 (D(2) dopamine receptor) | Ki (D(2) dopamine receptor) | also measured
1 | O=C1N(CCN2CCCCCC2)CCN1c1ccc(F)cc1 | > 3160 nM | 251 nM | 10 nM | 63.1 nM | 
2 | O=C1N(CCN2CCCCCC2)CCN1c1ccc(Cl)cc1 | > 3160 nM | 79.4 nM | 50.1 nM | 100 nM | 
3 | O=C1N(CCN2CCCCCC2)CCN1c1cccc(C(F)(F)F)c1 | > 3160 nM | 1 nM | > 7940 nM | 1.58 nM | 
4 | O=c1n(CCN2CCCCCC2)ccn1-c1cccc(Cl)c1 | > 3160 nM | > 631 nM | 126 nM | 398 nM | 
5 | Cc1ccc(N2CCN(CCN3CCCCCC3)C2=O)cc1 | > 3160 nM | 126 nM | > 7940 nM | 50.1 nM | 
6 | O=C1N(CC2CCCCN2)CCN1c1cccc(C(F)(F)F)c1 (stereo not drawn) | > 3160 nM | 0.251 nM | > 7940 nM | 20 nM | 
7 | O=C1N(CCN2CCCCCC2)CCN1c1cc(Cl)cc(Cl)c1 | > 3160 nM | 1.58 nM | > 7940 nM | 0.631 nM | 
8 | O=C1N(CCN2CCCCCC2)CCN1c1cccc(F)c1 | > 3160 nM | 15.8 nM | 0.794 nM | 2.51 nM | 
9 | O=C1N(CC2CCCCN2)CCN1c1cccnc1 (stereo not drawn) | > 3160 nM | > 631 nM | 501 nM | > 631 nM | 
10 | O=C1N(CC2CCCCN2)CCN1c1cccc(Cl)c1 (stereo not drawn) | > 3160 nM | 3.98 nM | 0.631 nM | 79.4 nM | IC50 [1]: 7940 nM; EC50 [2]: 501 nM; Ki [3]: > 251 nM; solubility [4]: 148 µg/mL (≈ 504 µM); IC50 (Cytochrome P450 2D6): 1000 nM; CLint scaled [5]: 3.4 mL/min/g; EC50 [6]: 794 nM; Ki (Histamine H1 receptor): > 2510 nM; CL (Liver microsomes): 23.7 mL/min/g; Ki [7]: > 1580 nM; logD [8]: 1.24
11 | Cc1cccc(N2CCN(CCN3CCCCCC3)C2=O)c1 | > 3160 nM | 79.4 nM | 10 nM | 25.1 nM | 
12 | COc1cccc(N2CCN(CCN3CCCCCC3)C2=O)c1 | > 3160 nM | 50.1 nM | > 7940 nM | 39.8 nM | 
13 | O=C1N(CC2CCNCC2)CCN1c1cccc(Cl)c1 | > 3160 nM | > 631 nM | > 7940 nM | > 631 nM | 
14 | O=C1N(CCN2CCCCCC2)CCN1c1cccc(Cl)c1 | > 3160 nM | 5.01 nM | 1 nM | 10 nM | 
15 | O=C1N(CCN2CCCCCC2)CCN1c1ccc(F)c(Cl)c1 | > 3160 nM | 25.1 nM | 10 nM | 15.8 nM | 
16 | O=C1N(CCN2CCCCCC2)CCN1c1ccncc1 | > 3160 nM | > 631 nM | > 3160 nM | 631 nM | 
17 | CN1CCCCC1CN1CCN(c2cccc(Cl)c2)C1=O (stereo not drawn) | > 3160 nM | 3.98 nM | 2.51 nM | 15.8 nM | 
18 | O=c1n(CCCN2CCCCCC2)ccn1-c1cccc(Cl)c1 | > 3160 nM | 126 nM | > 7940 nM | 631 nM | 
19 | O=C1N(CCN2CCCCCC2)CCN1c1ccccc1 | > 3160 nM | 63.1 nM | 0.631 nM | 7.94 nM | 
20 | Cc1ccccc1N1CCN(CCN2CCCCCC2)C1=O | > 3160 nM | > 631 nM | > 7940 nM | > 631 nM | 
21 | O=C1N(CC2CCCNC2)CCN1c1cccc(Cl)c1 (stereo not drawn) | > 3160 nM | > 631 nM | > 7940 nM | > 631 nM | 
22 | O=C1N(CCN2CCCCCC2)CCN1c1cccnc1 | > 3160 nM | 79.4 nM | 7.94 nM | 100 nM | 
23 | O=S1(=O)N(CCN2CCCCCC2)CCN1c1cccc(Cl)c1 | > 3160 nM | 316 nM | 126 nM | 200 nM | 
